Assay results reported in publication PMC7203682, “Pharmacological Inhibition of MALT1 Protease Leads to a Progressive IPEX-Like Pathology” (Frontiers in Immunology, 2020).
Where two headings read alike, the source gives them in different places.

Key:
female Lewis rat = settings: in vivo, 10 mg/kg
Protocol: Freund’s incomplete adjuvant (IFA, Difco, Detroit, United States) was mixed with porcine collagen type II (Chondrex, Redmond, United States) using a polytron on ice. The final solution consisted of 200 μg of collagen in 200 μl of IFA. […] of this was injected intradermally (i.d.) into the base of the tail of an isofluorane narcotized female Lewis rat. After 7 days, the isofluorane narcotized animal was boosted i.d. with a fresh batch of the immunization solution in an adjacent site at the base of the tail (100 μg in 100 μl). Paw swelling and body weight were taken three times per week as described below.
There were 10 animals per group for the compound treated groups and n = 9 rats for the vehicle group. […] Hind paws were taken for histological analysis.
There were five animals per group.
All animal studies were performed according to current Swiss animal protection laws, issued by the Cantonal Veterinary Office Basel-Stadt, Switzerland. Body weight of the animals was assessed regularly throughout the study. Mean values of groups were calculated. Scoring of the paw swelling was done on an arbitrary scale of 0–12 per rat, evaluating each hind paw in the front with 0–3 and in the ankle with 0–3, thus obtaining a maximal score of 6 per paw. The paw scores were summed up to obtain a score for each individual animal. The individual sum scores of all the animals were averaged and SEMs were calculated. The scoring system used was: 0 = no detectable sign of inflammation; 1, light swollen region; 2, more obviously swollen region; 3, ankylosis or severely swollen region.
Serum obtained at the end of the study, was diluted 1:10000 and 1: 100000.
Three-μm thick sections were stained with Giemsa and Safranin O (prophylactic setting) or hematoxylin and eosin (therapeutic setting).
Histopathological changes were blindly scored on a scale of 0 (normal) to 3 (severe changes). Following parameters were assessed: inflammatory cell infiltrates, joint damage and proteoglycan loss ([44]).

MALT1 = MALT1 (Canis lupus familiaris, UniProt A0A8I3RR14); test: cell-based
Protocol: Human whole blood was obtained from healthy volunteers by venipuncture at the Novartis Basle Health care unit. Blood was pooled into two 50 ml Falcon tubes and filtered using a 100 μm (or 70 μm)-cell strainer. Serial dilutions of compounds (10 mM DMSO stock) were diluted again 1/10 in X-VIVO medium (Lonza Biosciences) and 500 μl of whole blood was mixed with 55 μl of X-VIVO/compound mixes and pre-incubated for 1 h at 37°C with shaking (∼600 rpm). After the pre-incubation time 200 μl of the blood/compound mixes in duplicates were transferred to a new flat bottom plates and PMA (final: 100 ng/ml)/anti-CD28 (final: 300 ng/ml) solution was added. Incubation was performed overnight at 37°C + 5% CO2. Blood plates were spun for 10 min at 470 g and 100 μl of the resulting serum was analyzed for IL-2 levels using MesoScale Discovery kits (MSD), according to the manufacturer’s protocol. […] Similar protocols were implemented for PBMC and blood from rat and dog species.

[1] = blood compound concentrations in mice; type: in vivo, C57BL/6 mice; settings: mouse; for concentration at 1 h: C57BL/6, blood, ip, read-out: [Mepazine] blood at 1h (peak); for [Mepazine] blood at 15h (trough): BQL: below quantification limit
Foxp3+ Treg cells = test: Treg frequency and functional markers in mice treated 12 days; type: in vivo, C57BL/6 mice; settings: 8 mg/kg BID i.p. or 16 mg/kg QD i.p.
Protocol: Eight-week-old C57BL/6 mice (Charles River France) were treated from day 0 to day 12, either via p.o. […] (mepazine) dosing. Mepazine acetate (Chembridge, San Diego, CA, United States) was solubilized and dosed in PEG200/water (30/70 v/v). […] Some animals were euthanized at the end of the treatment period for analysis of lymphoid organs, while other animals were kept until day 19 to analyze the recovery of Treg cells after cessation of the treatment. […] Blood samples were collected along the treatment and recovery period to monitor changes in Tregs levels over time. Treg frequencies in blood and spleen as well as the expression of CTLA-4, TNFR2, KLRG1, and CD25 on Tregs was assessed by flow cytometry (see below). All animal studies were performed in accordance with the animal experimentation laws and guidelines laid down by the Swiss Federal and Cantonal Authorities. […] Splenocytes were analyzed at scheduled necropsies. […] CTLA-4 expression was assessed intra- and extracellularly.

MALT1, sequence (A0A8I3RR14 1-857): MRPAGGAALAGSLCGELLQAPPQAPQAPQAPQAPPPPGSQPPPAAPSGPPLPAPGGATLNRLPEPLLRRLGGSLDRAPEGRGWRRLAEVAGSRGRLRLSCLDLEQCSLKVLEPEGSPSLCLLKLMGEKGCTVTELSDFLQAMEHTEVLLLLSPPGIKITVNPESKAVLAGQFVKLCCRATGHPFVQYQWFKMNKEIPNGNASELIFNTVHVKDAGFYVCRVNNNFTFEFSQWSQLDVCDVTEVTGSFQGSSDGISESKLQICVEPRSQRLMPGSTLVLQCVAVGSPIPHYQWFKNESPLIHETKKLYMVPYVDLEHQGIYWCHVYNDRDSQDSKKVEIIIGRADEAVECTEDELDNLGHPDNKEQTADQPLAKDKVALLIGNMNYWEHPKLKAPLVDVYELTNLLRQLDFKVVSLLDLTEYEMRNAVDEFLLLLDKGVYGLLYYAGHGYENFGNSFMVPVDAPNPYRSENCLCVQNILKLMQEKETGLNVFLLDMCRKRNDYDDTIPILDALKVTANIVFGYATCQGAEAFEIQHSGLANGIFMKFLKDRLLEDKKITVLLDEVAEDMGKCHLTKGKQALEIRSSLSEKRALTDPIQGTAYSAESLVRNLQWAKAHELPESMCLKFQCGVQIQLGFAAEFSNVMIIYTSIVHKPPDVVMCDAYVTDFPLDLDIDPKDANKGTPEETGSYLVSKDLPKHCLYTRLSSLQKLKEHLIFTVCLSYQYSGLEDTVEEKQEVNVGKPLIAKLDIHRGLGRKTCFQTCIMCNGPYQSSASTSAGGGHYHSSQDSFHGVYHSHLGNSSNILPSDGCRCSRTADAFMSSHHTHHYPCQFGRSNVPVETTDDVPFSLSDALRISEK

Row | concentration at 1 h ([1]; 8 mg/kg BID i.p.) [nM] | concentration at 1 h ([1]; 16 mg/kg QD i.p.) [nM] | [Mepazine] blood at 15h (trough) ([1]; 8 mg/kg BID i.p.) | [Mepazine] blood at 15h (trough) ([1]; 16 mg/kg QD i.p.) | SMILES | histo-pathological score of hind paw: Inflammation (female Lewis rat) | histo-pathological score of hind paw: Joint damage (female Lewis rat) | histo-pathological score of hind paw: Proteoglycan loss (female Lewis rat) | anti-collagen antibody production (female Lewis rat; po) | joint histology scores (female Lewis rat; po) | paw swelling (female Lewis rat; po) | IC50 (MALT1) [nM] | expression of Treg activation markers (Foxp3+ Treg cells) | frequency of Treg cells (Foxp3+ Treg cells)
1 | – | – | – | – | CO[C@@H](C)c1c(NC(=O)Nc2ccnc(C(F)(F)F)c2)cnc2cc(Cl)nn12 [MLT-943] | 0 | 0 | 0 | suppressed | normalized | fully prevented | 92 | – | –
2 | 270 | 770 | BQL | BQL | CN1CCCC(CN2c3ccccc3Sc3ccccc32)C1 (stereo not shown) [mepazine] | – | – | – | – | – | – | – | impacted neither | impacted neither
